ChEMBL document CHEMBL6103592, “Discovery of novel thiazole-pleuromutilin derivatives with potent antibacterial activity” (Eur J Med Chem, 2025)
≈ marks a conversion by molar mass, not a printed value.

Assays:
Format in all cases: functional
[1] = test system: Enterococcus faecalis; experiment: Antibacterial activity against Enterococcus faecalis assessed as inhibition of visible bacterial growth incubated for 24 hrs by CLSI based broth microdilution method
[2] = test system: Mycoplasma; experiment: Antibacterial activity against Mycoplasma F3 assessed as inhibition of visible bacterial growth incubated for 24 hrs by CLSI based broth microdilution method
[3] = test system: Escherichia coli; experiment: Antibacterial activity against Escherichia coli ATCC 25922 assessed as inhibition of visible bacterial growth incubated for 24 hrs by CLSI based broth microdilution method
[4] = test system: Streptococcus agalactiae; experiment: Antibacterial activity against Streptococcus agalactiae assessed as inhibition of visible bacterial growth incubated for 24 hrs by CLSI based broth microdilution method
[5] = test system: Staphylococcus aureus; experiment: Antibacterial activity against methicillin-resistant Staphylococcus aureus ATCC 43300 assessed as inhibition of visible bacterial growth incubated for 24 hrs by CLSI based broth microdilution method
[6] = test system: Staphylococcus aureus; experiment: Antibacterial activity against Staphylococcus aureus ATCC 25923 assessed as inhibition of visible bacterial growth incubated for 24 hrs by CLSI based broth microdilution method

Structure (SMILES)	MIC [1] [µg/mL]	MIC [2] [µg/mL]	MIC [3] [µg/mL]	MIC [4] [µg/mL]	MIC [5] [µg/mL]	MIC [6] [µg/mL]
CCC[C@@H]1C[C@@H](C(=O)N[C@@H]([C@H]2O[C@H](SC)[C@H](O)[C@@H](O)[C@H]2O)[C@H](C)Cl)N(C)C1 [CLINDAMYCIN]	16 (≈ 37.6 µM)	1 (≈ 2.35 µM)	32 (≈ 75.3 µM)	> 32	> 32	> 32
C=C[C@]1(C)C[C@@H](OC(=O)CSc2nc(OC(=O)c3ccc(F)cc3)cs2)[C@]2(C)[C@H](C)CC[C@]3(CCC(=O)[C@H]32)[C@@H](C)[C@@H]1O	> 32	0.25 (≈ 0.406 µM)	> 32	0.125 (≈ 0.203 µM)	0.5 (≈ 0.812 µM)	0.5 (≈ 0.812 µM)
C=C[C@]1(C)C[C@@H](OC(=O)CSc2nc(OC(=O)c3cccc(Cl)c3)cs2)[C@]2(C)[C@H](C)CC[C@]3(CCC(=O)[C@H]32)[C@@H](C)[C@@H]1O	> 32	0.25 (≈ 0.395 µM)	> 32	0.063 (≈ 0.0996 µM)	1 (≈ 1.58 µM)	0.25 (≈ 0.395 µM)
C=C[C@]1(C)C[C@@H](OC(=O)CSc2nc(OC(=O)c3cccs3)cs2)[C@]2(C)[C@H](C)CC[C@]3(CCC(=O)[C@H]32)[C@@H](C)[C@@H]1O	> 32	0.25 (≈ 0.414 µM)	> 32	0.25 (≈ 0.414 µM)	1 (≈ 1.66 µM)	0.5 (≈ 0.828 µM)
C=C[C@]1(C)C[C@@H](OC(=O)CSc2nc(OC(=O)c3ccc(Cl)cc3Cl)cs2)[C@]2(C)[C@H](C)CC[C@]3(CCC(=O)[C@H]32)[C@@H](C)[C@@H]1O	> 32	0.5 (≈ 0.75 µM)	> 32	0.063 (≈ 0.0945 µM)	0.5 (≈ 0.75 µM)	2 (≈ 3 µM)
C=C[C@]1(C)C[C@@H](OC(=O)CSc2nc(OC(=O)c3ccc(C)cc3)cs2)[C@]2(C)[C@H](C)CC[C@]3(CCC(=O)[C@H]32)[C@@H](C)[C@@H]1O	> 32	0.5 (≈ 0.817 µM)	> 32	0.063 (≈ 0.103 µM)	1 (≈ 1.63 µM)	0.25 (≈ 0.409 µM)
C=C[C@]1(C)C[C@@H](OC(=O)CSc2nc(OC(=O)CC(C)(C)C)cs2)[C@]2(C)[C@H](C)CC[C@]3(CCC(=O)[C@H]32)[C@@H](C)[C@@H]1O	> 32	0.25 (≈ 0.422 µM)	> 32	0.125 (≈ 0.211 µM)	0.5 (≈ 0.845 µM)	0.5 (≈ 0.845 µM)
C=C[C@]1(C)C[C@@H](OC(=O)CSc2nc(OC(=O)c3cccc(F)c3)cs2)[C@]2(C)[C@H](C)CC[C@]3(CCC(=O)[C@H]32)[C@@H](C)[C@@H]1O	> 32	0.5 (≈ 0.812 µM)	> 32	0.125 (≈ 0.203 µM)	0.5 (≈ 0.812 µM)	2 (≈ 3.25 µM)
C=C[C@]1(C)C[C@@H](OC(=O)CSc2nc(OC(=O)c3ccccc3F)cs2)[C@]2(C)[C@H](C)CC[C@]3(CCC(=O)[C@H]32)[C@@H](C)[C@@H]1O	> 32	0.25 (≈ 0.406 µM)	> 32	0.125 (≈ 0.203 µM)	0.5 (≈ 0.812 µM)	0.5 (≈ 0.812 µM)
C=C[C@]1(C)C[C@@H](OC(=O)CSc2nc(OC(=O)C3CCC3)cs2)[C@]2(C)[C@H](C)CC[C@]3(CCC(=O)[C@H]32)[C@@H](C)[C@@H]1O	> 32	0.5 (≈ 0.868 µM)	> 32	0.063 (≈ 0.109 µM)	0.5 (≈ 0.868 µM)	1 (≈ 1.74 µM)
C=C[C@]1(C)C[C@@H](OC(=O)CSc2nc(OC(=O)CCCCCCC)cs2)[C@]2(C)[C@H](C)CC[C@]3(CCC(=O)[C@H]32)[C@@H](C)[C@@H]1O	> 32	0.5 (≈ 0.807 µM)	> 32	0.125 (≈ 0.202 µM)	2 (≈ 3.23 µM)	2 (≈ 3.23 µM)
C=C[C@]1(C)C[C@@H](OC(=O)CSc2nc(OC(=O)c3cccc(Br)c3)cs2)[C@]2(C)[C@H](C)CC[C@]3(CCC(=O)[C@H]32)[C@@H](C)[C@@H]1O	> 32	0.25 (≈ 0.369 µM)	> 32	0.063 (≈ 0.0931 µM)	0.5 (≈ 0.739 µM)	2 (≈ 2.96 µM)
C=C[C@]1(C)C[C@@H](OC(=O)CSc2nc(OC(=O)C3CC3)cs2)[C@]2(C)[C@H](C)CC[C@]3(CCC(=O)[C@H]32)[C@@H](C)[C@@H]1O	> 32	0.25 (≈ 0.445 µM)	> 32	0.063 (≈ 0.112 µM)	0.5 (≈ 0.89 µM)	1 (≈ 1.78 µM)
C=C[C@]1(C)C[C@@H](OC(=O)CSC2=NC(=O)CS2)[C@]2(C)[C@H](C)CC[C@]3(CCC(=O)[C@H]32)[C@@H](C)[C@@H]1O	> 32	0.5 (≈ 1.01 µM)	> 32	0.125 (≈ 0.253 µM)	1 (≈ 2.03 µM)	0.5 (≈ 1.01 µM)
C=C[C@]1(C)C[C@@H](OC(=O)CSc2nc(OC(=O)C3CCCCC3)cs2)[C@]2(C)[C@H](C)CC[C@]3(CCC(=O)[C@H]32)[C@@H](C)[C@@H]1O	> 32	0.5 (≈ 0.828 µM)	> 32	0.125 (≈ 0.207 µM)	1 (≈ 1.66 µM)	1 (≈ 1.66 µM)
